Measurements reported in US20140094413A1, “HEPATOCYTE GROWTH FACTOR (HGF) MIMICS AS THERAPEUTIC AGENTS” (WASHINGTON STATE UNIVERSITY, priority 2012, published 2014).
Several values for one entry are separate records, joined by “and”; a condition that tells them apart may be missing. Identical values can stand only once. Entries after “also recorded” stand apart in the source; their conditions may differ. Like-named read-outs stand apart in the source and are kept apart here. Where a SMILES comes first, the peptide text is derived from it. [ ]: non-standard residue; d: D form. dNle = CCCC[C@@H](N)C(=O)O; Ahx = NCCCCCC(=O)O

Key:
Met = assay: Inhibition of HGF-dependent Met phosphorylation in HEK293 cells; assay type: cell-based, human; details: 10 min with HGF+/− analog
Description: HEK293 cells were seeded in 6 well tissue culture plates and grown to 95% confluency in DMEM containing 10% FBS. The cells were serum deprived for 24 h prior to the treatment to reduce the basal levels of phospho-Met. Following serum starvation, cocktails comprised of vehicle and HGF with/without 6-AH analogs were prepared and pre-incubated for 30 min at room temperature. The cocktail was then added to the cells for 10 min to stimulate the Met receptor and downstream proteins. Cells were harvested using RIPA lysis buffer (Millipore; Billerica, Mass.) fortified with phosphatase inhibitor cocktails 1 and 2 (Sigma-Aldrich; St. Louis, Mo.). The lysate was clarified by centrifugation at 15,000 nx g for 15 min, protein concentrations were determined using the BCA total protein assay (Pierce), and then appropriate volumes of the lysates were diluted with 2× reducing Laemmli buffer and heated for ten min at 95° C. Samples containing identical amounts of protein were resolved using SDS-PAGE (Criterion, BioRad Laboratories), transferred to nitrocellulose, and blocked in Tris-buffered saline (TBS) containing 5% milk for 1 h at room temperature. The phospho-Met antibody were added to the blocking buffer at a final concentration of 1:1000 and incubated at 4° C. overnight with gentle agitation. The membranes were then washed several times with water and TBS ([…], 0.05% Tween-20), a 1:5000 dilution of horseradish-peroxidase conjugated goat anti-rabbit antiserum was added, and the membranes further incubated for 1 h at room temperature. Proteins were visualized using the Supersignal West Pico Chemiluminescent Substrate system (Pierce, Fenton, Mo.) and molecular weights determined by comparison to protein ladders (BenchMark, Invitrogen, and Kaleidoscope, BioRad). Film images were digitized and analyzed using a UVP phosphoimager.

human HGF [1] = target: T1, human HGF (Homo sapiens, UniProt P14210); assay: HGF binding, competition with 3H-Hinge; details: 1.25 ng HGF, 40 min at 37° C.; N=9
T1 construct: purchased R&D Systems (Minneapolis, Minn.)
Description: The binding of 6-AH analogs to HGF was assessed by competition using a soluble binding assay. 250 μl of PBS containing human HGF (1.25 ng) were incubated with ^3H-Hinge, the central dimerization domain of HGF, in the presence of varying concentrations of 6-AH analogs between 10^−13 M to 10^−7M (half-log dilutions) for 40 min at 37° C. The incubates were then spun through Bio-Gel P6 spin columns (400 μl packed volume) for 1 min to separate free and bound ^3H-Hinge and the eluent was collected. Five milliliters of scintillation fluid was added to the eluent, which contained the HGF bound ^3H-Hinge, and was then counted using scintillation counter. Total disintegrations per minute of bound ^3H-Hinge were calculated based on machine counting efficiency. The Ki values for the binding of the peptides were determined using the Prism 5. Competition binding curves were performed in triplicate.

MDCK cells [2] = assay: Inhibition of HGF-dependent scattering in MDCK cells; assay type: cell-based, canine; details: HGF 20 ng/ml, 48 h
Description: MDCK cells were grown to 100% confluency on the coverslips in six-well plates and washed twice with PBS. The confluent coverslips were then aseptically transferred to new six well plates containing 900 μl serum free DMEM. Norleual, Hinge peptide, and/or HGF (20 ng/ml) were added to appropriate wells. Control wells received PBS vehicle. Plates were incubated at 37° C. with 5% CO2 for 48 h. Media was removed and cells were fixed with methanol. Cells were stained with Diff-Quik Wright-Giemsa (Dade-Behring, Newark, Del.) and digital images were taken. Coverslips were removed with forceps and more digital images were captured. Pixel quantification of images was achieved using Image J and statistics were performed using Prism 5 and InStat v.3.05 (GraphPad; San Diego, Calif.).

Microsomal metabolism = assay type: in vitro ADME, rat; details: over 90 min; data not shown
[3] = rat
Description: Male Sprague-Dawley rats (250+ g) were allowed food (Harlan Teklad rodent diet) and water ad libitum in our AAALAC certified animal facility. Rats were housed in temperature-controlled rooms with a 12 h light/dark cycle. The right jugular veins of the rats were catheterized with sterile polyurethane Hydrocoat™ catheters (Access Technologies, Skokie, Ill., USA) under ketamine (Fort Dodge Animal Health, Fort Dodge, Iowa, USA) and isoflurane (Vet One™, MWI, Meridian, Id., USA) anesthesia. The catheters were exteriorized through the dorsal skin. The catheters were flushed with heparinized saline before and after blood sample collection and filled with heparin-glycerol locking solution (6 mL glycerol, 3 mL saline, 0.5 mL gentamycin (100 mg/mL), 0.5 mL heparin (10,000 u/mL)) when not used for more than 8 h. The animals were allowed to recover from surgery for several days before use in any experiment, and were fasted overnight prior to the pharmacokinetic experiment.
Catheterized rats were placed in metabolic cages prior to the start of the study and time zero blood samples were collected. […] After dosing, blood samples were collected as follows (times and blood volumes collected are listed in chronological order):
After each blood sample was taken, the catheter was flushed with saline solution and a volume of saline equal to the volume of blood taken was injected (to maintain total blood volume).
Upon collection into polypropylene microfuge tubes without heparin, blood samples were immediately centrifuged at 4° C., 2300×g for 5 min to remove any cells and clots and the serum transferred into clean microcentrifuge tubes. A volume of internal standard (Nle^1-AngIV, 100 μg/mL) equal to 0.1 times the sample serum volume was added. A volume of ice-cold acetonitrile equal to four times the sample serum volume was then added and the sample vortexed vigorously for 30 s. The supernatants were transferred to clean tubes, then held on ice until the end of the experiment, and stored at 4° C. afterward until further processing.
All samples were evaporated to dryness in a Savant SpeedVac® concentrator. […] The samples were then transferred to HPLC autosampler vials and 100 μl was injected into the HPLC system a total of 2 times (2 HPLC/MS analyses) for each sample.
Data collection and integration were achieved using Shimadzu LCMS solution software. The analytical column used was an Econosphere C18 (100 mm×2.1 mm) from Grace Davison Discovery Science (Deerfield, Ill., USA). The mobile phase consisted of HPLC grade methanol and water with 0.1% trifluoroacetic acid. Separation was carried out using a non-isocratic method (40%-50% methanol over 10 min) at ambient temperature and a flow rate of 0.3 mL/min. […] Data were normalized based on the recovery of the internal standard.
Pharmacokinetic analysis was performed using data from individual rats. The mean and standard deviation (SD) were calculated for the group.

human HGF [4] = target: T1, human HGF; assay: HGF dimerization; assay type: biochemical; details: analogs at 10^−10 M, heparin, 30 minute incubation
Description: HGF dimerization was assessed using PAGE followed by silver staining (Kawas et al., 2011). Human HGF at a concentration of 0.08 ng/μl with or without 6-AH analogs was incubated with heparin at a final concentration of 5 μg/ml. Loading buffer was then added to each sample and the mixture separated by native PAGE using gradient Criterion XT precast gels (4-12% Bis-Tris; Biorad Laboratories, Hercules, Calif.). Next the gel was silver stained for the detection of the HGF monomers and dimers. Bands were quantitated from digital images using a UVP phosphoimager (Upland, Calif.).

MDCK cells [5] = assay: HGF-dependent MDCK cell proliferation (MTT); assay type: cell-based, canine; details: analogs at 10^−10M, HGF 10 ng/ml, 4 days
Description: 5000 MDCK cells were seeded into the wells of a 96 well plates in 10% FBS DMEM. To induce cellular quiescence, the cells were serum deprived for 24 h prior to initiating the treatments. Following serum starvation, 10 ng/ml HGF alone and with various concentrations of 6-AH analogs or PBS vehicle were added to the media. The cells were allowed to grow under these conditions for 4 days with a daily addition of 6-AH analogs. On the fourth day, 1 mg/ml of […] (MTT, Sigma-Aldrich) prepared in PBS was added to the cells and incubated for 4 h. Dimethyl sulfoxide diluted in a 0.01M glycine buffer was added to solubilize the cell membranes and the absorbance of reduced MTT in the buffer was quantitated at 590 nm using a plate reader (Biotek Synergy 2, Winooski, Vt.). HGF-dependent proliferation was determined by subtracting the basal proliferation (in the absence of HGF) from total proliferation rates in groups containing HGF.

Blood stability studies = details: heparinized rat blood, 37° C.; single phase exponential decay
Description: (§1) At the end of each incubation, 20 μL of Nle^1-AngIV (100 μg/mL) was added to each sample as an internal standard. […] All samples were centrifuged at 4° C., 2300×g for 5 min and the supernatants were transferred to clean tubes.
(§2) Samples were then separated by HPLC on an Econosphere C18 (100 mm×2.1 mm) from Grace Davison Discovery Science (Deerfield, Ill.). […] The mobile phase consisted of HPLC water (Sigma St. Louis, Mo.) with 0.1% trifluoroacetic or 0.1% heptafluorobutyric acid (Sigma St. Louis, Mo.) and varying concentrations of ACN or methanol. Separation was carried out using a gradient method, at ambient temperature and a flow rate of 0.3 mL/min (see below for more information). Stability half-lives were determined assuming a normal single phase exponential decay using Prism 5 graphical/statistical program (GraphPad, San Diego, Calif.).

[6] = tested on: B16-F10 murine melanoma cells; assay: B16-F10 melanoma lung colony formation; assay type: in vivo, mouse; details: C57BL/6 mice, daily IP 10 μg/kg/day or 100 μg/kg/day, 14 days
Description: Six to eight month old C57BL/6 mice were injected with 400,000 B16-F10 cells in 200 μl PBS by tail vein injection and subsequently received daily intraperitoneal injections of either D-Nle-X-Cys-NH—(CH2)5—CONH2 ([…]) or a PBS vehicle control. Two weeks later, mice were anesthetized and lungs were perfused with PBS and removed. Photos were taken and lungs were solubilized in 1% Triton x-100, 20 mM Tris, 0.15 M NaCl, 2 mM EDTA, and 0.02% sodium azide. Samples were disrupted by sonication (Mixonix, Farmingdale, N.Y.) and spun. The supernatant was transferred to a 96 well plate and melanin absorbance at 410 nm was measured using a plate reader.

[7] = rat; remark: listed apart in the source
Description: as §1, §2

T1 sequence (P14210 32-728): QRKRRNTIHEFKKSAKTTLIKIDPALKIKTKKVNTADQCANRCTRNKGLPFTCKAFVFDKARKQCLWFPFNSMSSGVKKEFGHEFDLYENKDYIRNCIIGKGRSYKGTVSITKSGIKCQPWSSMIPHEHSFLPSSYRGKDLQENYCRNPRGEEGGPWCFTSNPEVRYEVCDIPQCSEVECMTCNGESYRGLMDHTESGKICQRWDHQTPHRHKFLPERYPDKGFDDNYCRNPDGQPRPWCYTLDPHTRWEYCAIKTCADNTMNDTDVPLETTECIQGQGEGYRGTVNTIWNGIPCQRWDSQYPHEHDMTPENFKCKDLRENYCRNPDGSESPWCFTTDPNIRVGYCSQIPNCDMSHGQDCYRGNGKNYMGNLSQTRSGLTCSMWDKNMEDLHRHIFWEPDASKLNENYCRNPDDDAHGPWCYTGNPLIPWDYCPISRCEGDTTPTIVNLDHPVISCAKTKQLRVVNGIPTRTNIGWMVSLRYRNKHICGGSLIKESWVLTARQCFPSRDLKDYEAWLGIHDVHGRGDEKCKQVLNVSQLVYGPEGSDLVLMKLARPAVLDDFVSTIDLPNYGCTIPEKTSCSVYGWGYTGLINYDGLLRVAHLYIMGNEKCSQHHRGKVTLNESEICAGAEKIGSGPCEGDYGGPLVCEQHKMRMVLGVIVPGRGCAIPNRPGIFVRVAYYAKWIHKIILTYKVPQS

CCCC[C@@H](N)C(=O)N[C@@H](Cc1ccc(O)cc1)C(=O)N[C@H](C(=O)NCCCCCC(N)=O)[C@@H](C)CC (H-[dNle]YI[Ahx]-NH2)
Inhibition of HGF-dependent Met phosphorylation (Met): able to block Met auto-phosphorylation | Ki (human HGF [1]): 0.243 nM | Inhibition of HGF-dependent MDCK cell scattering (MDCK cells [2]): different from the HGF alone group but not different from the control group | Phase I metabolism in rat liver microsomes (Microsomal metabolism): no detectable metabolism | Total recovery from serum ([3]; in vivo): greater than 35% | AUC(0-inf) ([3]; in vivo, iv, 24 mg/kg): 11500 ng·h/mL | C0 ([3]; in vivo, iv, 24 mg/kg): 68.2 ± 32.2 µg/mL | KE (rate of elimination) ([3]; in vivo, iv, 24 mg/kg): 0.001 ± 0.0002 min − 1 | Vd ([3]; in vivo, iv, 24 mg/kg): 104 ± 65 L/kg | clearance ([3]; in vivo, iv, 24 mg/kg): 58.3 ± 15.6 mL/min/kg | t1/2 (in vivo elimination half-life) ([3]; iv, 24 mg/kg): 16.87 h | Inhibition of HGF dimerization (human HGF [4]): completely block HGF dimer formation | Inhibition of HGF dimerization (human HGF [4]; listed as Tyr): statistically different than the HGF treated group | Inhibition of HGF-dependent MDCK cell proliferation (MDCK cells [5]): marked inhibitory activity | Stability t1/2 in blood (Blood stability studies): 1.33 h and 1.333 h

CCCC[C@@H](N)C(=O)N[C@@H](CS)C(=O)N[C@H](C(=O)NCCCCCC(N)=O)[C@@H](C)CC [D-Nle-Cys-Ile-NH—(CH2)5—CONH2] (H-[dNle]CI[Ahx]-NH2)
Inhibition of HGF-dependent Met phosphorylation (Met): able to block Met auto-phosphorylation | Ki (human HGF [1]): 0.133 nM | Inhibition of HGF-dependent MDCK cell scattering (MDCK cells [2]): different from the HGF alone group but not different from the control group | Inhibition of HGF dimerization (human HGF [4]): completely block HGF dimer formation | Inhibition of HGF dimerization (human HGF [4]; listed as Cys): statistically different than the HGF treated group | Inhibition of HGF-dependent MDCK cell proliferation (MDCK cells [5]): marked inhibitory activity | Inhibition of B16-F10 melanoma lung colonization [6]: suppressed pulmonary colonization; also recorded: radically prevented lung colonization | Inhibition of B16-F10 melanoma lung colonization ([6]; listed as D-Nle-Cys-Ile-(6)-amino-hexanoic amide): obvious reduction in melanoma colonies

CCCC[C@H](N)C(=O)N[C@@H](Cc1ccc(O)cc1)C(=O)N[C@H](CN[C@@H](Cc1c[nH]cn1)C(=O)N1CCC[C@H]1C(=O)N[C@@H](Cc1ccccc1)C(=O)O)CC(C)C [Norleual, Nle-Tyr-Leu-Ψ-(CH2—NH2)^3-4-His-Pro-Phe]
Stability t1/2 in blood [7]: 4.6 min
